Test results as given in US9090640B2, “Targeted delivery and prodrug designs for platinum-acridine anti-cancer compounds and methods thereof” (priority 2011, dated 2015).

Key:
[1] = test system: PANC-1 (pancreatic); assay: Colorimetric cell proliferation assay in PANC-1; assay type: cell-based; conditions: 72-h incubations performed in triplicate
[2] = test system: MCF-7 (ER + breast); assay: Colorimetric cell proliferation assay in MCF-7; assay type: cell-based; conditions: 72-h incubations performed in triplicate
[3] = test system: OVCAR-3 (ovarian); assay: Colorimetric cell proliferation assay in OVCAR-3; assay type: cell-based; conditions: 72-h incubations performed in triplicate
[4] = test system: NCI-H460; assay: Cytotoxicity (cell proliferation) assay in NCI-H460; assay type: cell-based, human
Experimental: Cytotoxicity Assay. Cytotoxicity studies were carried out according to a standard protocol (Guddneppanavar et al. 2006) using the Celltiter 96 Aqueous Non-Radioactive Cell Proliferation Assay kit (Promega, Madison, Wis.). Stock solutions of 11, 14a, and 14b were prepared in phosphate-buffered saline (PBS) and serially diluted with media prior to incubation with cancer cells. IC50 values were calculated from non-linear curve fits using a sigmoidal dose-response equation in GraphPad Prism (GraphPad Software, La Jolla, Calif.). […]
Cell Proliferation Assay. Cell viability was assessed using the CellTiter 96 Aqueous Non-Radioactive Cell Proliferation Assay (Promega, Madison. Wis., USA) as described previously. […] The absorbance of tetrazolium dye was measured at 490) nm using a plate reader. The fraction of viable cells was calculated as a percentage of untreated control and is reported as the mean±standard deviation for 3 incubations of each compound. IC50 values were calculated from non-linear curve fits using a sigmoidal dose-response equation in GraphPad Prism (GraphPad Software, La Jolla, Calif.) and are averages of two individual experiments performed in triplicate. […]

[5] = test system: MDA-MB-231 (triple-negative breast); assay: Colorimetric cell proliferation assay in MDA-MB-231; assay type: cell-based; conditions: 72-h incubations performed in triplicate

N.N.[Cl][Pt][Cl] [cispiatin, cis-diamminedichloroplatinum]
IC50 [1]: 6.6 ± 0.7 µM | IC50 [2]: 12 ± 2 µM | IC50 [3]: 3.3 ± 0.4 µM | IC50 ([4]; 72-h incubations performed in triplicate (Table II), read-out: IC50, NCI-H460 (NSCLC)): 1.2 ± 0.2 µM | Fold less potent than the compounds of the invention in H460 cells ([4]; compared with 14a and 14b): at least 20 fold | IC50 [5]: 60 ± 7 µM
